Assay results published in article PMC8682760, “Specificity and sensitivity of an RNA targeting type III CRISPR complex coupled with a NucC endonuclease effector” (Nucleic Acids Research, 2021).
Several values for one entry are separate records, joined by “and”; a condition that tells them apart may be missing. Identical values can stand only once.

Legend:
NucC = molecular target: T1, NucC (Vibrio metoecus, UniProt P0DUD6); assay: fluorogenic dsDNA (FAM/Iowa Black) cleavage, plate reader; format: biochemical; conditions: read-out: Act50
T1 construct: Codon-optimised synthetic gene in pEV5HisTEV, N-terminal His8 tag (TEV step as for VmeCmr), E. coli C43(DE3); trimeric species used
T1 sequence (P0DUD6 1-245): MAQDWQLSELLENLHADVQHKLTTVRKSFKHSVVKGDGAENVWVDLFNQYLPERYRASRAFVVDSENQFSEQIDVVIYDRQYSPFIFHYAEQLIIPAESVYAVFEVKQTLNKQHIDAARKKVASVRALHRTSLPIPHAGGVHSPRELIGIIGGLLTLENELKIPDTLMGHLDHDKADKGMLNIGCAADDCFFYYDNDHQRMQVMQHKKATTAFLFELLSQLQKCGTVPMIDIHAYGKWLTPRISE

[1] = molecular target: the molecule itself; assay: SEC; HiLoad 16/60 Superdex pg 200, 20 mM Tris-HCl, 250 mM NaCl, 10% (v/v) glycerol, pH 7.5; peaks at approximately 160 ml and 180 ml

Nc1ncnc2c1ncn2[C@@H]1O[C@@H]2COP(=O)(O)O[C@H]3[C@@H](O)[C@H](n4cnc5c(N)ncnc54)O[C@@H]3COP(=O)(O)O[C@H]3[C@@H](O)[C@H](n4cnc5c(N)ncnc54)O[C@@H]3COP(=O)(O)O[C@H]2[C@H]1O [cA3]
EC50 (NucC): 0.094 ± 0.004 nM

B1: Vibrio metoecus NucC DNA endonuclease effector (enzyme, UniProt P0DUD6 1-245, looked up)
chain: MAQDWQLSELLENLHADVQHKLTTVRKSFKHSVVKGDGAENVWVDLFNQYLPERYRASRAFVVDSENQFSEQIDVVIYDRQYSPFIFHYAEQLIIPAESVYAVFEVKQTLNKQHIDAARKKVASVRALHRTSLPIPHAGGVHSPRELIGIIGGLLTLENELKIPDTLMGHLDHDKADKGMLNIGCAADDCFFYYDNDHQRMQVMQHKKATTAFLFELLSQLQKCGTVPMIDIHAYGKWLTPRISE
notes: NucC of the Vibrio metoecus type III-B CRISPR locus; source: E. coli C43(DE3), purified (HisTrap, TEV, second HisTrap, SEC on Superdex 200); not shown: His8, N-terminal, cleaved
stoichiometry N [1]: 6 and 3
